Tests used:
[1] = system: exposed dental pulp of maxillary first molar; test: Pulp exposure (class I cavity) in maxillary first molar, H&E histology of sections four weeks after treatment; type: in vivo, C57BL/6J mice; settings: mice
Protocol: (§1) In order to test this hypothesis, a class I cavity extending into the dentin and almost to the pulp was prepared on the occlusal surface of the maxillary first molar after anesthesia in five to six week old C57BL/6J mice. The cavity was prepared using a 0.3-0.5 millimeter diameter carbide bur. An endodontic hand file with a tip diameter of 0.06-0.10 millimeter was used to create a mechanical break in the thin dentin overlying the dental pulp, thereby creating a cavity that included exposed dentin and exposed pulp.
(§2) For the control group of mice, after hemostasis, a one-step, dual-cure, self-etching bonding agent (SCOTCHBOND™ Universal Adhesive; 3M ESPE, St. Paul, Minnesota, USA) was applied to exposed dentin according to the manufacturer's instructions and cured for 20-40 seconds using a dental curing light operated at 420-480 nanometers and 1200-2000 milliwatts/centimeter^2. ProRoot™ MTA (Mineral Trioxide Aggregate) root canal repair material (Dentsply Sirona, Tulsa Dental Specialties, Johnson City, Tennessee, USA) was prepared according to manufacturer's instructions by mixing powder and liquid components in equal proportions to form a dough. The dough was packed over the exposed pulp according to manufacturer's instructions. The cavity was then sealed with FILTEK™ Supreme Ultra Universal Restorative (3M ESPE, St. Paul, Minnesota, USA), which was applied to the cured adhesive and the root canal repair material, then cured for 20-40 seconds using a dental curing light operated at 420-480 nanometers and 1200-2000 milliwatts/centimeter^2.
For the test group of mice, after hemostasis, a one-step, dual-cure, self-etching bonding agent (SCOTCHBOND™ Universal Adhesive; 3M ESPE, St. Paul, Minnesota, USA) was applied to exposed dentin according to the manufacturer's instructions and cured for 20-40 seconds using a dental curing light operated at 420-480 nanometers and 1200-2000 milliwatts/centimeter^2. Prior to being applied, the AHA solution was divided into two parts of equal volume to mix in the photoinitiators and the redox (self-cure) initiator components. […]

[2] = system: exposed dental pulp of maxillary first molar; test: Pulp exposure (class I cavity) in maxillary first molar, microCT of maxilla six weeks after treatment; type: in vivo, C57BL/6J mice; settings: mice, six weeks after dental procedure; longitudinal section, cured restorative removed before imaging
Protocol: as §1
as §2, with “The cavity was then sealed with FILTEK™ Supreme Ultra Universal Restorative (3M ESPE, St. Paul, Minnesota, USA), which was applied to the cured adhesive and the root canal repair material, then cured for 20-40 seconds using a dental curing light operated at 420-480 nanometers and 1200-2000 milliwatts/centimeter^2.” left out

With C=CC(=O)Oc1ccccc1N=Nc1ccccc1O [AHA, 2-Acryloyloxy-2′-hydroxy-azobenzene] the “appearance of gingiva around the site of application (inflammation, dysplasia)” value [1] was “healthy without any signs of inflammation or dysplasia”, the “formation of dentinal bridge at the site of pulp exposure (H&E stained sections)” value ([1]; 2.5 to 12.5 micrograms AHA per restoration applied to exposed pulp, light-cured under FILTEK restorative) was “closed by formation of a dentinal bridge generated by reparative dentin formation” and the “state of dental pulp by microscopy (vitality, inflammation, dysplastic changes)” value ([1]; H&E sections) was “vital pulp without any evidence of chronic or acute inflammation or dysplastic changes”. For the same molecule, the “formation of a calcified dentinal bridge at the pulp exposure site (microCT)” value [2] was “pulp exposure site closed by a calcified dentinal bridge”.

From patent US20250127689A1, “METHOD OF STIMULATING DENTIN FORMATION WITH HYDROXY-SUBSTITUTED AZOBENZENE MATERIALS” (The Regents of the University of Colorado, a body corporate, priority 2022, published 2025)
